{
  "source": "patent US5561122A",
  "about": "“Combretastatin A-4 prodrug” (Arizona Board of Regents acting on behalf of Arizona State …, priority 1994, dated 1996)",
  "key": {"cancer cell": {"test_system": "cancer cell", "settings": "Von Hoff et al., 1993; cited from earlier work"}, "tubulin": {"test_system": "tubulin", "settings": "Hamel et al., 1989; cited from earlier work"}, "[1]": {"test_system": "NCI 60 cell line panel (human tumor cell lines)", "assay": "NCI 60 cell line full-panel screen (growth inhibition) with COMPARE analysis", "assay_type": "cell-based", "settings": "for GI50: Homo sapiens, 60 cell, read-out: mean panel GI50 concentration", "description": "The following measures are used to express drug activity by giving the drug dose which reduces cell growth to a specified percentage of growth:\nED50 (P388) and GI50 (HTCL) are the drug doses needed to reduce the percent growth to 50%. There is no mathematical difference between ED50 and GI50, which are both calculated using the same formula. The only difference is historical usage.\nTotal Growth Inhibition (\"TGI\") is the drug dose needed to yield zero percent growth, i.e., just as many cells at the end of the experiment as were present in the beginning. Whether just as many cells were killed as were produced (steady state), or no growth occurred (total inhibition), cannot be distinguished.\nLethal Concentration 50% (\"LC50 \") is the drug concentration which reduces growth to -50%, i.e., removes half of the cells originally present at the beginning of the experiment.\nEach drug is tested at five (5) doses: 100 - 10 - 1 - 0.1 -0.01 μg/ml. Percent Growths are calculated for each dose. The two (or three) doses with growth values above, below, (or near to) 50% growth are used to calculate the ED50 /GI50 using a linear regression formula. The log of the dose is used during the regression computation. If no dose yields a growth value under 50%, the results are expressed as: ED50 >(highest dose). If no dose yields growth higher than 50% growth, then ED50 <(lowest dose). Similar calculations are performed for the TGI at 0% growth, and at -50% growth for the LC50.\nAt the start of an experiment, cells from the in vitro cell cultures are inoculated into the appropriate tubes or microtiter plates. One set of control tubes/plates is immediately counted to determine the number of cells at the start of the experiment. This is the \"baseline count\" or \"Tzero reading\". At the end of the experiment (48 hours later) a second set of control tubes/plates is analyzed to determine the \"Control Growth\" value. The growth (or death) of cells relative to the initial quantity of cells is used to define the \"Percent of Growth\".\nFor further information about the testing protocols and procedures see Anne Monks et al., \"Feasibility of a High-Flux Anticancer Drug Screen Using a Diverse Panel of Cultured Human Tumor Cell Lines\", 83 J. Nat. Cancer Inst. No. 11, pp. 757-66 (5 Jun. 1991) and […], \"Status of the NCI Preclinical Antitumor Drug Discovery Screen\" 3 Princ & Practice of Oncology Updates No. 10, pp. 1-12 (October 1989).\nBy definition a pro-drug is a precursor which will undergo metabolic activation in vivo to the active drug. […] Combretastatin A-4 (1a) and prodrug (1h) were then comparatively evaluated against the full-panel NCI screen (M. R. Boyd, \"Status of the NCI Preclinical Antitumor Drug Discovery Screen: Implications for Selection of New Agents for Clinical trial,\" 3 Cancer: Principles and Practice of Oncology Updates No. 10, pp1-12 (1989) and M. R. Boyd et al. \"The Future of New Drug Development. Section I. Introduction to Cancer Therapy,\" Current Therapy in Oncology. Philadelphia: Decker (1993)). […]"}, "[2]": {"assay": "stability / reaction with water", "assay_type": "physicochemical"}},
  "note": "Where two headings read alike, the source gives them in different places.",
  "data": [
    {"smiles": "COc1ccc(/C=C\\c2cc(OC)c(OC)c(OC)c2)cc1O", "note": "[Compound 1a, combretastatin A-4]", "values": [
      {"measurement": "cancer cell growth inhibition", "setting": "cancer cell", "result": "potent"},
      {"measurement": "tubulin assembly inhibition", "setting": "tubulin", "result": "potent"},
      {"measurement": "GI50", "setting": "[1]; full-panel NCI screen, mean over panel, quadruplicate, 48 hours", "result": 6.61, "unit": "nM"}
    ]},
    {"smiles": "COc1ccc(/C=C\\c2cc(OC)c(OC)c(OC)c2)cc1O", "note": "[Compound 1b]", "values": [
      {"measurement": "reaction with water", "setting": "[2]", "result": "regenerated combretastatin A-4"}
    ]},
    {"smiles": "COc1ccc(/C=C\\c2cc(OC)c(OC)c(OC)c2)cc1O", "note": "[Compound 1c]", "values": [
      {"measurement": "reaction with water", "setting": "[2]", "result": "regenerated combretastatin A-4"}
    ]},
    {"smiles": "COc1ccc(/C=C\\c2cc(OC)c(OC)c(OC)c2)cc1OC(=O)CCC(=O)O", "note": "[Compound 1d]", "values": [
      {"measurement": "reaction with water", "setting": "[2]", "result": "regenerated combretastatin A-4"},
      {"measurement": "aqueous solubility (in words)", "setting": "water solubility", "result": "essentially insoluble"}
    ]},
    {"smiles": "COc1ccc(/C=C\\c2cc(OC)c(OC)c(OC)c2)cc1OP(=O)(O)O", "note": "[Compound 1f, Ammonium hydrogen combretastatin A-4 3-O Phosphate]", "values": [
      {"measurement": "aqueous solubility (in words)", "setting": "water solubility", "result": "most soluble"}
    ]},
    {"smiles": "COc1ccc(/C=C\\c2cc(OC)c(OC)c(OC)c2)cc1OP(=O)(O)O", "note": "[Compound 1g, Dipotassium combretastatin A-4 3-O-phosphate]", "values": [
      {"measurement": "stability (in words)", "setting": "[2]", "result": "most stable"}
    ]},
    {"smiles": "COc1ccc(/C=C\\c2cc(OC)c(OC)c(OC)c2)cc1OP(=O)(O)O", "note": "[Compound 1h, Disodium combretastatin A-4 3-O-Phosphate]", "values": [
      {"measurement": "GI50", "setting": "[1]; 48 h", "result": 6.89, "unit": "nM"},
      {"measurement": "Pearson correlation coefficient for the differential cytotoxicity profiles (TGI-COMPARE)", "setting": "[1]; combretastatin A-4 (1a) vs its prodrug (1h)", "result": 0.91},
      {"measurement": "cell growth inhibitory activity", "setting": "[1]; compared with combretastatin (1a)", "result": "comparable"},
      {"measurement": "in vitro activity levels in the NCI 60 cell line panel", "setting": "[1]; compared with combretastatin A-4, activity level and COMPARE algorithm", "result": "reasonably similar"}
    ]}
  ]
}
